Results as given in patent US9365489B2, “Nitrooxy alkanoic acids and derivatives thereof in feed for reducing methane emission in ruminants, and/or to improve ruminant performance” (priority 2009, dated 2016).

Experiments:
[1] = tested on: methanogenesis in rumen liquor; experiment: In vitro test for methane production (modified Hohenheim Forage value Test); conditions: 8 h, 39° C., average of two experiments, vs control
Method: A modified version of the “Hohenheim Forage value Test (HFT)” was used for testing the effect of specific compounds on the rumen functions mimicked by this in-vitro system.
Feed is given into a syringe with a composition of rumen liquor and an appropriate mixture of buffers. The solution is incubated at 39° C. After 8 hours the quantity (and composition) of methane produced is measured and put into a formula for conversion.
• 6.2 g potassium dihydrogen phosphate (KH2PO4) • 0.6 g magnesium sulfate heptahydrate (MgSO4*7H2O) • 9 ml concentrated phosphoric acid (1 mol/l) • dissolved in distilled water to 1 l (pH about 1.6) Buffer Solution: • 35.0 g sodium hydrogen carbonate (NaHCO3) • 4.0 g ammonium hydrogen carbonate ((NH4)HCO3) • dissolved in distilled water to 1 l Trace Element Solution: • 13.2 g calcium chloride dihydrate (CaCl2*2H2O) • 10.0 g manganese(II) chloride tetrahydrate (MnCl2*4H2O) • 1.0 g cobalt(II) chloride hexahydrate (CoCl2*6H2O) • 8.0 g iron(III) chloride (FeCl3*6H2O) • dissolved in distilled water to 100 ml Sodium Salt Solution: • 100 mg sodium salt • dissolved in distilled water to 100 ml Reduction Solution: • first 3 ml sodium hydroxide (c=1 mol/l), then 427.5 mg sodium sulfide hydrate (Na2S*H2O) are added to 71.25 ml H2O • solution must be prepared shortly before it is added to the medium solution Procedure: Sample Weighing: • The feed stuff is sieved to 1 mm—usually TMR (44% concentrate, 6% hay, 37% maize silage and 13% grass silage)—and weighed exactly into 64 syringes. 4 of these syringes are the substrate controls, which display the gas production without the effect of the tested compounds. 4 other syringes are positive control, in which bromoethane sulfonate has been added to 0.1 mM. When needed, 4 syringes contain a carrier control (if the test compounds need a carrier). The remaining syringes contain the test substances, by groups of 4 syringes. Preparation of the Medium Solution:
The components are mixed in a Woulff bottle in following order: • 711 ml water • 0.18 ml trace element solution • 355.5 ml buffer solution • 355.5 ml mass element solution • The completed solution is warmed up to 39° C. followed by the addition of 1.83 ml sodium salt solution and the addition of reduction solution at 36° C. The rumen liquor is added, when the indicator turns colourless. Extraction of the Rumen Liquor: • 750 ml of rumen liquor are added to approximately 1,400 ml of medium solution under continued agitation and CO2-gassing. Filling the Syringes, Incubation and Determining Gas Volumes and VFA Values: • The diluted rumen fluid (24 ml) is added to the glass syringe. The syringes are then incubated for 8 hours at 39° C. under gentle agitation. After 8 hours, the volume of gas produced is measured, and the percentage of methane in the gas phase is determined by gas chromatography. Results
The food fermented was artificial TMR (44% concentrate, 6% hay, 37% maize silage and 13% grass silage). The compounds produced as described in examples 3 to 20 were added to the fermentation syringes to a concentration of 2 to 0.01% of dry matter (DM).

[2] = Stability of the isolated compound (1H NMR); format: physicochemical; conditions: for degradation on storage: after 1 week at room temperature, repurified compound; for degradation on drying (1H NMR): dried at 60° C. under reduced pressure for 18 hours
Method: The final compound was dried at 60° C. under reduced pressure for 18 hours. […] The degraded compound was adsorbed on silica gel and purified by flash chromatography [Biotage®, dichloromethane/methanol 100/0→98/2 (15CV), 98/2 (4CV)] affording compound 3 as a light yellow liquid (0.59 g, yield=33%).
The final compound was dried at 60° C. under reduced pressure for 18 hours. […] The degraded compound was adsorbed on silica gel and purified by flash chromatography [Biotage®, dichloromethane/methanol 100/0→98/2 (12CV), 98/2 (6CV)] affording compound 3 as a white solid (0.90 g, yield=70%).

SMILES | effect on methanogenesis (%) ([1]; 0.05% DM) | effect on methanogenesis (%) ([1]; 0.1% DM) | effect on methanogenesis (%) ([1]; 0.01% DM) | effect on methanogenesis (%) ([1]; 0.5% DM) | effect on methanogenesis (%) ([1]; 2% DM) | effect on methanogenesis (%) ([1]; 1% DM) | degradation on storage [2] | degradation on drying (1H NMR) [2] | effect on methanogenesis (%) ([1]; 0.25% DM)
CCOC(=O)CO[N+](=O)[O-] | −1% | −1% |  |  |  |  |  |  | 
COC(=O)CCO[N+](=O)[O-] | −64% |  | −12% | −100% | −100% |  |  |  | 
O=C(O)CCO[N+](=O)[O-] | −98% | −100% | −8% | −100% | −100% |  |  |  | 
CCOC(=O)C(C)O[N+](=O)[O-] (stereo not shown) | −2% |  |  | −33% | −100% |  |  |  | 
CCOC(=O)CCCO[N+](=O)[O-] | −55% | −82% | −6% | −100% | −100% |  |  |  | 
O=C(O)CCCO[N+](=O)[O-] |  |  |  |  | 2% |  |  |  | 
CCOC(=O)CC(C)O[N+](=O)[O-] (stereo not shown) | −17% |  |  | −100% | −100% |  |  |  | 
CCOC(=O)CCCCO[N+](=O)[O-] | −87% |  | −28% | −100% | −100% |  |  |  | 
O=C(O)CCCCO[N+](=O)[O-] | −100% | −100% | −23% | −100% | −100% |  |  |  | 
CC(C)(CO[N+](=O)[O-])C(=O)O |  |  |  | −49% | −100% |  |  |  | 
CCOC(=O)CCCCCO[N+](=O)[O-] | −78% | −100% | −3% |  |  |  |  |  | 
O=C(O)CCCCCO[N+](=O)[O-] | −99% | −100% | −10% |  |  |  |  |  | 
CCOC(=O)CCCCCCCO[N+](=O)[O-] | −96% | −99% | −12% |  |  |  |  |  | 
O=C(O)CCCCCCCO[N+](=O)[O-] | −76% | −100% | −7% |  |  |  |  |  | 
CCOC(=O)CCCCCCCCCCO[N+](=O)[O-] | −48% | −99% | −8% |  |  |  |  |  | 
O=C(O)CCCCCCCCCCO[N+](=O)[O-] | −52% | −99% | −13% |  |  |  |  |  | 
CCOC(=O)C1CCC(O[N+](=O)[O-])CC1 (stereo not shown) | −2% | −88% |  |  |  | −98% |  |  | 
CNC(=O)CCCCO[N+](=O)[O-] [Example 18, 5-Nitrooxy-pentanoic acid methylamide] |  |  |  |  |  |  | No further degradation was observed | Degradation was observed | 
NC(=O)CCCCO[N+](=O)[O-] [Example 20, 5-Nitrooxy-pentanoic acid amide] |  |  |  |  |  |  | No further degradation was observed | Degradation was observed | 
O=[N+]([O-])[O-].[Na+] [Na NO3, reference compound] |  |  |  | −2% | −23% |  |  |  | 
CCOC(=O)CCO[N+](=O)[O-] [drawing 19] | −18% | −63% |  | −100% | −100% | −100% |  |  | −100%
NC(=O)CCCCO[N+](=O)[O-] [drawing 36] |  | −99% | −2% |  |  | −98% |  |  | 
CNC(=O)CCCCO[N+](=O)[O-] [drawing 37] |  | −100% | −2% |  |  | −98% |  |  | 
